Data from US6579679B1, “Method for examining central nervous system diseases and method for screening remedies” (Tanabe Seiyaku Co., Ltd., priority 1998, dated 2003).

Tests used:
[1] = system: PS-2 splicing variant lacking exon 5; assay: Effect of drug on induction of expression of PS-2 splicing variants in human nerve cells under hypoxic conditions (RT-PCR, gel electrophoresis); type: cell-based; details: human neuroblastoma SK-N-SH cells, low oxygen 16 hours; cycloheximide 0.2 or 1 μg/ml, N-acetyl-L-cysteine 2 or 10 μM, diphenylene iodonium chloride 5 or 20 μM; FIG. 5
[2] = system: PS-2 splicing variants (5′-terminal fragment); assay: Detection of PS-2 splicing variants in human nerve cells after β-amyloid stimulation or hydrogen peroxide addition (RT-PCR, gel electrophoresis); type: cell-based; details: SK-N-SH cells; Aβ25-35 0.5 or 5 μM for 16 hours; H2O2 44 or 440 μM for 2 hours; FIG. 2
Description: After culturing human neuroblastoma SK-N-SH cells (ATCC HTB-11) in α-MEM medium (α-Minimum Essential Medium; available from GIBCO CO.) containing 10% fetal bovine serum in a 10 cm diameter culture plates at 37° C. for about 48 hours in a CO2 incubator to a confluent state, the medium was replaced with the same medium not containing fetal bovine serum followed by additional culturing for about 2 hours.
The above cultured cells were additionally cultured under the conditions (i) to (iv) indicated below (culturing was continued for an additional 16 hours under the same conditions as above for the control).
(iii) β-amyloid stimulation: Aβ25-35 (available from Sigma Co.) was added to the medium to a final concentration of 0.5 μM or 5 μM followed by incubating for 16 hours. […]
Using, the RNA (total RNA, 1 μg) obtained in section (1) above as template, this RNA was allowed to react for 1 hour at 42° C. in 0.05 ml of a buffer (0.05 M Tris-HCl, pH 8.3, 0.075 MN KCl, 0.003 M MgCl2, DTT and 0.0002 M deoxynucleotides) containing oligo dT primer (50 pmole), random oligonucleotide (5 pmole) and reverse transcriptase (available from Promega Co., Moloney leukaemia virus reverse transcriptase) (200 units) to synthesize single-strand cDNA. Using the resulting single-strand cDNA, splicing variants were detected by polymerase chain reaction (PCR) in the manner described below. […]

| Compound | expression of a splicing variant lacking exon 5 induced by hypoxic treatment [1] | bands not observed in the control, PCR of the 5′-terminal fragment of PS-2 (induced splicing variants) [2] |
| --- | --- | --- |
| c1ccc2c(c1)[I+]c1ccccc1-2 [diphenylene iodonium chloride] | inhibited |  |
| C[C@@H]1C[C@@H]([C@H](O)CC2CC(=O)NC(=O)C2)C(=O)[C@@H](C)C1 [cycloheximide] | inhibited |  |
| OO [hydrogen peroxide] |  | three bands not observed in the control |
| CC(=O)N[C@@H](CS)C(=O)O [N-acetyl-L-cysteine] | inhibited |  |
| β-amyloid: partial peptide consisting of the 25th to 35th amino acid residues of β-amyloid protein (GSNKGAIIGLM; Amyloid-beta protein 42; UniProt P05067 696-706, looked up, fragment) |  | two bands each not observed in the control |
